In patent US20260365671A1, “HETEROCYCLIC COMPOUND” (Takeda Pharmaceutical Company Limited, priority 2022, published 2026):
pIC50: −log10 of the molar value.

Legend:
NF-κB pathway = assay: TNF-α assay (THP-1 cells differentiated to macrophages with IFN-γ, NF-κB pathway activated with LPS; ELISA); assay type: cell-based, Human; conditions: Homo sapiens, THP-1, THP-1 macrophages, compound 30 min, 50 ng/mL LPS 3 hours
Method in brief: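 TNF-α release measured by ELISA after 3 h stimulation with 50 ng/mL LPS, following 30 min compound pretreatment (37 °C, no FBS). Cells were THP-1 macrophages primed with IFN-γ 25 ng/mL for 24 h. IC50 derived by logistic curve fit.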

NLRP3 inflammasome = molecular target: T1, NLRP3 inflammasome (Homo sapiens, UniProt Q96P20); assay: IL-1β TR-FRET assay (THP-1 cells differentiated to macrophages with IFN-γ, LPS primed, ATP activated; HTRF); assay type: cell-based; conditions: THP-1 macrophages, 50 ng/mL LPS priming, compound 30 min, 20 mM ATP 2 hours
T1 construct: IL-1beta HTRF
T1 sequence (Q96P20 whole entry): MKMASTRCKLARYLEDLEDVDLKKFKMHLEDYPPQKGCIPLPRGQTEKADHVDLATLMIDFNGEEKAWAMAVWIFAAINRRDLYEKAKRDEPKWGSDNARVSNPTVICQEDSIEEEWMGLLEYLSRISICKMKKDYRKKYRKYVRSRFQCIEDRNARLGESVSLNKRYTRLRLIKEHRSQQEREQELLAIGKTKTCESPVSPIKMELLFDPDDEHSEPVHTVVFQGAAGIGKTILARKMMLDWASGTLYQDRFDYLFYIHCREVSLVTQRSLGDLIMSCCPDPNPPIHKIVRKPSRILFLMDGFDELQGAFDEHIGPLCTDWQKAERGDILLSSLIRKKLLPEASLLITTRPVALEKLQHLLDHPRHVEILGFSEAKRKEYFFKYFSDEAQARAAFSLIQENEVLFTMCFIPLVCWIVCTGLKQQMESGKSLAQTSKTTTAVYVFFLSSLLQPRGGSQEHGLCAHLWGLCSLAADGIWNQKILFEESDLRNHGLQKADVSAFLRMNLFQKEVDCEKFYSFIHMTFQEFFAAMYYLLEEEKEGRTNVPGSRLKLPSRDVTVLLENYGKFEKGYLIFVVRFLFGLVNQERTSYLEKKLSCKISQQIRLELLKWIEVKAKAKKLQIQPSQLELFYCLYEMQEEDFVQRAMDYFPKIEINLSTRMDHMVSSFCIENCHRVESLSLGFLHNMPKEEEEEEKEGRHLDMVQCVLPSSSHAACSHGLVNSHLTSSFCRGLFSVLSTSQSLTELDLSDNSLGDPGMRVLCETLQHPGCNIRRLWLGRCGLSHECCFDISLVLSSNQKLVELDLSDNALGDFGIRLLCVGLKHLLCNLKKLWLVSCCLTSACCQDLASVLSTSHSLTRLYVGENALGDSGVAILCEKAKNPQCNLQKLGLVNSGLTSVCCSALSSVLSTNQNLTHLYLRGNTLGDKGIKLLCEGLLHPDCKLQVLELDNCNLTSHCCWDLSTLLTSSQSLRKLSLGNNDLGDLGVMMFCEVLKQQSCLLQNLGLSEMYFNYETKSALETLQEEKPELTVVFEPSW
Method in brief: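 IL-1β release was read by HTRF after 16–24 h antibody incubation at room temperature, using supernatants from THP-1-derived macrophages (IFN-γ 25 ng/mL, LPS 50 ng/mL priming) given compound 30 min and then 20 mM ATP for 2 h. % inhibition versus concentration was fitted logistically for IC50.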

SMILES	pIC50 (NF-κB pathway)	pIC50 (NLRP3 inflammasome)
Cc1cc(C)c(-n2cc3sc(N[C@H]4C[C@@H](F)CN(C)C4)nc3n2)c(O)c1 [Example 178, 2-(5-{[(3S,5R)-5-fluoro-1-methylpiperidin-3-yl]amino}-2H-pyrazolo[3,4-d][1,3]thiazol-2-yl)-3,5-dimethylphenol]	< 4.52	5.08
Cc1cc(C)c(-n2cc3sc(N[C@@H]4C[C@H](F)CN(C)C4)nc3n2)c(O)c1 [Example 179, 2-(5-{[(3R,5S)-5-fluoro-1-methylpiperidin-3-yl]amino}-2H-pyrazolo[3,4-d][1,3]thiazol-2-yl)-3,5-dimethylphenol]	< 4.52	7.03
Cc1cc(C)c(-n2cc3sc(N[C@H]4C[C@H](F)CN(C)C4)nc3n2)c(O)c1 [Example 180, 2-(5-{[(3S,5S)-5-fluoro-1-methylpiperidin-3-yl]amino}-2H-pyrazolo[3,4-d][1,3]thiazol-2-yl)-3,5-dimethylphenol]	< 4.52	5.38
CCNc1nc2nn(-c3c(C)cc(C)cc3O)cc2s1 [Example 181, 2-[5-(ethylamino)-2H-pyrazolo[3,4-d][1,3]thiazol-2-yl]-3,5-dimethylphenol]	< 4.52	6.47
